Legend:
[1] = target: T1, Serine/threonine-protein kinase Nek3 (Homo sapiens) (UniProt P51956); assay: Inhibition of human NEK3 at 18.6 nM by HotSpot assay relative to control
T1 sequence (whole entry): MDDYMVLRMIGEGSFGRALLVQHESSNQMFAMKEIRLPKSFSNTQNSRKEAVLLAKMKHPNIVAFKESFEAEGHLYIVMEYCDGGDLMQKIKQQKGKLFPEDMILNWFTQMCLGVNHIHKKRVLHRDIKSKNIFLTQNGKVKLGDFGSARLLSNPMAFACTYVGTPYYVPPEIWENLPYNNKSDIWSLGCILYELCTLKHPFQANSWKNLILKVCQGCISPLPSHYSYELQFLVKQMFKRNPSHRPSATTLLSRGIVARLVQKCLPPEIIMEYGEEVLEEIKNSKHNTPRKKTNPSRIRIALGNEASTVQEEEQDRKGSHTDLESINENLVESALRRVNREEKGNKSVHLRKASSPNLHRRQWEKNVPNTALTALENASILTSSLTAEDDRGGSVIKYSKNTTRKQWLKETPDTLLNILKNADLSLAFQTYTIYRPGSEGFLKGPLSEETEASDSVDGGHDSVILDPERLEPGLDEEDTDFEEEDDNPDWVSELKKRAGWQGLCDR

[2] = target: T2, Mitogen-activated protein kinase kinase kinase 2 (Homo sapiens) (UniProt Q9Y2U5); assay: Inhibition of human MEKK2 at 18.6 nM by HotSpot assay relative to control
T2 sequence (whole entry): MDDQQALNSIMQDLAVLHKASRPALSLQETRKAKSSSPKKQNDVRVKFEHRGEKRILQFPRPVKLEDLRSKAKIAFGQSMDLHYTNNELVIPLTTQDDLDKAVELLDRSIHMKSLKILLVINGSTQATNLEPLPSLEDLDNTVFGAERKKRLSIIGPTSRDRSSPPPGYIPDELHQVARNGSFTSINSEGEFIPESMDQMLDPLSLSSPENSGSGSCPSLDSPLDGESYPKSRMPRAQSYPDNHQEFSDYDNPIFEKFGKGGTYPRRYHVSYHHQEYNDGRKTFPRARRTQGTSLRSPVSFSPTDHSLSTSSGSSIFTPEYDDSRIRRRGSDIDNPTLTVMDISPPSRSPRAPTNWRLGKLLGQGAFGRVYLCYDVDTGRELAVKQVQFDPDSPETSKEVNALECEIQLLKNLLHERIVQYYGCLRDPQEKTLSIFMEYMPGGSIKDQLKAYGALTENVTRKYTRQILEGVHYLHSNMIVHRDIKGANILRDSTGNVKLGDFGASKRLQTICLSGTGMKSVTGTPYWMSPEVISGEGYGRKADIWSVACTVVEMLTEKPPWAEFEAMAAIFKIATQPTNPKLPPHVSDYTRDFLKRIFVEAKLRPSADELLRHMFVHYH

[3] = target: Serine/threonine-protein kinase SIK2 (Homo sapiens) (UniProt Q9H0K1); assay: Inhibition of human SIK2 at 18.6 nM by HotSpot assay relative to control
[4] = target: Protein kinase C theta type (Homo sapiens) (UniProt Q04759); assay: Inhibition of human PKCtheta at 18.6 nM by HotSpot assay relative to control
[5] = target: CDK9/cyclin T1 (Homo sapiens) (UniProt O60563+P50750); assay: Inhibition of human CDK9/cyclin T1 at 1.82 nM by HotSpot assay relative to control; format: protein-complex assay
[6] = target: Ephrin type-A receptor 7 (Homo sapiens) (UniProt Q15375); assay: Inhibition of human EPHA7 at 1.82 nM by HotSpot assay relative to control
[7] = target: Calcium/calmodulin-dependent protein kinase kinase 2 (Homo sapiens) (UniProt Q96RR4); assay: Inhibition of human CAMKK2 at 1.82 nM by HotSpot assay relative to control
[8] = target: T3, Serine/threonine-protein kinase D2 (Homo sapiens) (UniProt Q9BZL6); assay: Inhibition of human PRKD2 at 1.82 nM by HotSpot assay relative to control
T3 sequence (whole entry): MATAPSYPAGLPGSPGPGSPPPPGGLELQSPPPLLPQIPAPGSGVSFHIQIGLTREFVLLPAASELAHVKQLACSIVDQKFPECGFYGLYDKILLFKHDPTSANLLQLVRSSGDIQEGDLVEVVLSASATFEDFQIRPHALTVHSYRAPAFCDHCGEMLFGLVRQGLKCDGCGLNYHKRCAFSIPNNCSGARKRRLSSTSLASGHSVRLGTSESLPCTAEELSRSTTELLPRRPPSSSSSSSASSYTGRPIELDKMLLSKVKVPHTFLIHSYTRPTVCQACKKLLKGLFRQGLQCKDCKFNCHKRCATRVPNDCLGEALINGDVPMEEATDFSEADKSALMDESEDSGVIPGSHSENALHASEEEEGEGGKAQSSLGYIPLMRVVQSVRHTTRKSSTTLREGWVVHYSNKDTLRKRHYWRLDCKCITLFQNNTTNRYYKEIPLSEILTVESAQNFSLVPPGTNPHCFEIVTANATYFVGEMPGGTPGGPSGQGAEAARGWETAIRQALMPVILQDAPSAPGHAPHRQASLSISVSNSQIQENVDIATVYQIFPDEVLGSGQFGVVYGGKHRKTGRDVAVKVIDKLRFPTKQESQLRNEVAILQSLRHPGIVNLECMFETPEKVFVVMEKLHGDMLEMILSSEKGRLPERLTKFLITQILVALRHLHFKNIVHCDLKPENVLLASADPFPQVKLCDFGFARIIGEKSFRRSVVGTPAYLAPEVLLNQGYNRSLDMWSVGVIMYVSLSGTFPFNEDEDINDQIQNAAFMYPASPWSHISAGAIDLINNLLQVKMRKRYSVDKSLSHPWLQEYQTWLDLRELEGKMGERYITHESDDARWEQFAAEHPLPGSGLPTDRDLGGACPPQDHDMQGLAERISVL

[9] = target: Ribosomal protein S6 kinase alpha-5 (Homo sapiens) (UniProt O75582); assay: Inhibition of human RPS6KA5 at 1.82 nM by HotSpot assay relative to control
[10] = target: CDK6/cyclin D1 (Homo sapiens) (UniProt P24385+Q00534); assay: Inhibition of human CDK6/cyclin D1 at 1.82 nM by HotSpot assay relative to control; format: protein-complex assay
[11] = target: SRSF protein kinase 1 (Homo sapiens) (UniProt Q96SB4); assay: Inhibition of human SRPK1 at 1.82 nM by HotSpot assay relative to control
Sequence of SRSF protein kinase 1 (Homo sapiens) (Q96SB4 whole entry): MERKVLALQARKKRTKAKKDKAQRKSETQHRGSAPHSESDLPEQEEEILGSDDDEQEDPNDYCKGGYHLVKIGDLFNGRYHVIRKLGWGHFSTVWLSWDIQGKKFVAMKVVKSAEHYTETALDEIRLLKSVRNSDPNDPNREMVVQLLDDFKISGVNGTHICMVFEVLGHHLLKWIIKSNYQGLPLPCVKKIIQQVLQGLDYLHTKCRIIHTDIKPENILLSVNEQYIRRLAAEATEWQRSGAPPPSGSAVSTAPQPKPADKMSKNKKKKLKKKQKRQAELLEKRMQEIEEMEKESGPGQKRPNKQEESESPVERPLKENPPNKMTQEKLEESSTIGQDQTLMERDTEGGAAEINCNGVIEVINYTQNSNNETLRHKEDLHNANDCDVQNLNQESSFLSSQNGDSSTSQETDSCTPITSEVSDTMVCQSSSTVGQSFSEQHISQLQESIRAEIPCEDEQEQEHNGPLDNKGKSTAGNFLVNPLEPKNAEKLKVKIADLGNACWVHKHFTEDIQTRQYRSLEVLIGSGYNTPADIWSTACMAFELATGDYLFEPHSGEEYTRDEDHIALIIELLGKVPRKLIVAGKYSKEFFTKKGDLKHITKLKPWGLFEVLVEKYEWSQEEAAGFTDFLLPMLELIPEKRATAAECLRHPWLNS

Sequence of Serine/threonine-protein kinase SIK2 (Homo sapiens) (Q9H0K1 whole entry, looked up): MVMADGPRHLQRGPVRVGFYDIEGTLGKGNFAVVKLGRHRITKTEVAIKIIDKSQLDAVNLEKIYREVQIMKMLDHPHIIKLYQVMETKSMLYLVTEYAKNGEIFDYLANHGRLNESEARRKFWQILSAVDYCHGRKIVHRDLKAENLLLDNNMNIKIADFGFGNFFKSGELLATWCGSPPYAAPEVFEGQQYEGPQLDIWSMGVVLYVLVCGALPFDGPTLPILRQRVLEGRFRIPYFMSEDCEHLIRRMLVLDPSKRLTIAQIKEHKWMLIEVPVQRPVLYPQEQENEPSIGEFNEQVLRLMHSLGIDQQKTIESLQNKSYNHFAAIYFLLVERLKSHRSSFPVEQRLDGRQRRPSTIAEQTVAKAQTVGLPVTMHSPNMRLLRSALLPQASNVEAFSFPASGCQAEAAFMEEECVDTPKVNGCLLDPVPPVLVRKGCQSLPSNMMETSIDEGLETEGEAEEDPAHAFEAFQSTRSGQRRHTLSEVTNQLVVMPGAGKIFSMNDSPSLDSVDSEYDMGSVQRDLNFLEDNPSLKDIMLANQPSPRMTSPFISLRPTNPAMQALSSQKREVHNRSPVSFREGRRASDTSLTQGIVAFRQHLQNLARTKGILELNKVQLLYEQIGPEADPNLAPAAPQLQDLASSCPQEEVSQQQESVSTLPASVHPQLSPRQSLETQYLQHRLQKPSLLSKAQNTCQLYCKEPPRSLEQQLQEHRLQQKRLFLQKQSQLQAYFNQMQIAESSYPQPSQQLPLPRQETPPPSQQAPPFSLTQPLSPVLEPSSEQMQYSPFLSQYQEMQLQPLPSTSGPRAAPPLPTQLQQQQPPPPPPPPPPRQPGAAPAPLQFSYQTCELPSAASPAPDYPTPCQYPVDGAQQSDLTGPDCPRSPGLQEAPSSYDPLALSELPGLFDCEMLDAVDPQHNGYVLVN
Sequence of Calcium/calmodulin-dependent protein kinase kinase 2 (Homo sapiens) (Q96RR4 2-588 limits assumed): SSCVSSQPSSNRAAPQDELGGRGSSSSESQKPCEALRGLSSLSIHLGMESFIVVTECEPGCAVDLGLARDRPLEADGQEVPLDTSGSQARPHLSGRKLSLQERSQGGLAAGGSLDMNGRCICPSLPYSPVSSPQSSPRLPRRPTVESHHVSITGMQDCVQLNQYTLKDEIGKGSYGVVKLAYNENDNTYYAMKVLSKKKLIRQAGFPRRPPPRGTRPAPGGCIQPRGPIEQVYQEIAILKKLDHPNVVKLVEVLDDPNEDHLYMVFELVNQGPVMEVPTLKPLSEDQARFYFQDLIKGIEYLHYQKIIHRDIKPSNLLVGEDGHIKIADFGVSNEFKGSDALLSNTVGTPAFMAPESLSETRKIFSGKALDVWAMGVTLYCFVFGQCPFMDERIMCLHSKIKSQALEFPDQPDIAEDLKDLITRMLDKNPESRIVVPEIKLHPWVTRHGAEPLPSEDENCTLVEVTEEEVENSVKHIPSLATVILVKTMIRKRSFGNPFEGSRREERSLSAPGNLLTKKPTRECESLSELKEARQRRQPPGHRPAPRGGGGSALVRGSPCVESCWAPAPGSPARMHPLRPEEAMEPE
Sequence of Ribosomal protein S6 kinase alpha-5 (Homo sapiens) (O75582 whole entry, looked up): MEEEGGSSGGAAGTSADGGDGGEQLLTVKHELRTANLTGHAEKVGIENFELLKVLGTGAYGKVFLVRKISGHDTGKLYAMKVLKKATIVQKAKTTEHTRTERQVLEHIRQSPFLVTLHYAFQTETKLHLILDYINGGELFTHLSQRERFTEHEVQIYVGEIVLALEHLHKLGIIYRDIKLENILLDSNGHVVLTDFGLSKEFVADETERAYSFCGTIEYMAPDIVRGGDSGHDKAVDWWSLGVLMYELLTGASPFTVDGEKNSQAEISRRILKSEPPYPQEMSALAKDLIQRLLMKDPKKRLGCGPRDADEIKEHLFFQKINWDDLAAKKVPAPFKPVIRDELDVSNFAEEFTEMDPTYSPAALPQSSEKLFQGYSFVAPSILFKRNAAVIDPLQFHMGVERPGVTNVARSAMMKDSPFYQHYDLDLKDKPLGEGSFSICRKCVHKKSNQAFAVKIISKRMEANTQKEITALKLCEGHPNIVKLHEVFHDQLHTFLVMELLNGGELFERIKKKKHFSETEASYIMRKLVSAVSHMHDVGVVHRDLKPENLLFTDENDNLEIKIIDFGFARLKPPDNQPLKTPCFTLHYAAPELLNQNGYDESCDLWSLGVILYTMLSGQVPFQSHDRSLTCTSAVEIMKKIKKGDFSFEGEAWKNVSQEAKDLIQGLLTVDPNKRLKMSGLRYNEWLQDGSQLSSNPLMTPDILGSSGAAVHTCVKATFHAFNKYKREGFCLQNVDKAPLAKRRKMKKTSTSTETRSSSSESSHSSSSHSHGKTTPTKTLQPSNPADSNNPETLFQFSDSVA
Sequence of Ephrin type-A receptor 7 (Homo sapiens) (Q15375 28-998 limits assumed): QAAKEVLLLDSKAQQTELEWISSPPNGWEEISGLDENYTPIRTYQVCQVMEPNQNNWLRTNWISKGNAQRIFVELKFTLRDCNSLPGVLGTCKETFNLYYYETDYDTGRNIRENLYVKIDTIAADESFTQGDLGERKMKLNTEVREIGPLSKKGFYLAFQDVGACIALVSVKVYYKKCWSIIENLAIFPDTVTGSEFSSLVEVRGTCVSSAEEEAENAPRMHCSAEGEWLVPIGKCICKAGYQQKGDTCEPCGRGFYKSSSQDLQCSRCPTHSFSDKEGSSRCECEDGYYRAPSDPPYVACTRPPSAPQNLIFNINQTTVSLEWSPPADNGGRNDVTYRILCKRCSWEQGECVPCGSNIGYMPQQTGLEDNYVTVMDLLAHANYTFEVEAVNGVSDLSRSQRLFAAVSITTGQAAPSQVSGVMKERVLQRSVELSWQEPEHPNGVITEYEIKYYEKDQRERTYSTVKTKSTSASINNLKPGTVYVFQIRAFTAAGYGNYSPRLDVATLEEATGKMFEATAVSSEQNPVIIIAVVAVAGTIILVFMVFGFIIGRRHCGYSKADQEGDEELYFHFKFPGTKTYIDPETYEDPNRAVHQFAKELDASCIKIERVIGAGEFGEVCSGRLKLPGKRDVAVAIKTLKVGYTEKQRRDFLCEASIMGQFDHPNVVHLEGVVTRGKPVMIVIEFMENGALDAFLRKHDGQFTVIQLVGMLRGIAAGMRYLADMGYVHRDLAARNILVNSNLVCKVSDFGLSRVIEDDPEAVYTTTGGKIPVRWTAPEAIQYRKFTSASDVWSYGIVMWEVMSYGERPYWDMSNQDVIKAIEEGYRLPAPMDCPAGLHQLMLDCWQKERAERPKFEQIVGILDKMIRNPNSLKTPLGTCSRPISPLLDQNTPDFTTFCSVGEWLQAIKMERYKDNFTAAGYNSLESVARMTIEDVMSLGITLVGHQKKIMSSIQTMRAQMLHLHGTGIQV
Sequence of Protein kinase C theta type (Homo sapiens) (Q04759 whole entry, looked up): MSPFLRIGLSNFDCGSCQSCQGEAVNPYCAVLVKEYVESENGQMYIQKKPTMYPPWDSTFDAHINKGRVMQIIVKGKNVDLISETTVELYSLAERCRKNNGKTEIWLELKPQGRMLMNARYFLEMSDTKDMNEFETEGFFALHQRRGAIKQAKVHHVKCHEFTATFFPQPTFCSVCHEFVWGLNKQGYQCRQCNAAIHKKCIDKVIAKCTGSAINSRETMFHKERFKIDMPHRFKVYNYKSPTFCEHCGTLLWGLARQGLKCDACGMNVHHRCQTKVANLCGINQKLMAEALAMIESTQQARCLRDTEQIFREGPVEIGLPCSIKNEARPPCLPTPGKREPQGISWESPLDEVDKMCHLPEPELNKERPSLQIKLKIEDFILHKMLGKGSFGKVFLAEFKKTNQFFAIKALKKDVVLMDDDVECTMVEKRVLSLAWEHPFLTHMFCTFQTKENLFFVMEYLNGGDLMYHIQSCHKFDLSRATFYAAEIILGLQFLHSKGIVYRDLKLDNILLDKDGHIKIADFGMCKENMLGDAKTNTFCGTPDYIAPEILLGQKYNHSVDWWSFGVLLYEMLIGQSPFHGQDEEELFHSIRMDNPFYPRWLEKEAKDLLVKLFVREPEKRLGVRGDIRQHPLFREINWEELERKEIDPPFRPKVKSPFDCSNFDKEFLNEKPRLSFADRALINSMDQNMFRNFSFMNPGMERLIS

inhibition [1] [%] | inhibition [2] [%] | inhibition [3] [%] | inhibition [4] [%] | inhibition [5] [%] | inhibition [6] [%] | inhibition [7] [%] | inhibition [8] [%] | inhibition [9] [%] | inhibition [10] [%] | inhibition [11] [%] | Compound
7.82 | -2.2 | -8.94 | -9.99 |  |  |  |  |  |  |  | C[C@]1(O)C[C@@H](c2nc(-c3ccc4ccc(-c5ccccc5)nc4c3)c3c(N)nccn32)C1
 |  |  |  | 1.5 | 3.41 | 26.5 | 2.22 | -3.72 | -1.74 | -4.32 | C[C@@]1(C(=O)Nc2ccc(F)nc2)CCCN1c1nc(Nc2cc(C3CC3)n[nH]2)c2cccn2n1

Source: ChEMBL document CHEMBL5653615 (J Biol Chem, 2013)
